Data taken from patent publication US10131652B2, “Pyrimidinyloxy benzene derivatives as herbicides” (E. I. DU PONT DE NEMOURS AND COMPANY, priority 2014, dated 2018).

Experiments:
Format in all cases: in vivo
[1] = test system: Italian ryegrass (Lolium multiflorum); assay: Test B pre-/postemergence plant response
Outline: (§1)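 Seeds in loam–sand blend given preemergence soil spray; separately, plants at one- to two-leaf stage (2–10 cm) sprayed postemergence, compounds in non-phytotoxic solvent with surfactant. Injury rated visually versus untreated controls after ~10 days in greenhouse, 0 (no effect) to 100 (complete control).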

kochia (Kochia scoparia) = assay: Test B pre-/postemergence plant response
Outline: as §1

[2] = test system: ragweed (common ragweed, Ambrosia elatior); assay: Test B pre-/postemergence plant response
Outline: as §1

[3] = test system: Italian ryegrass (Lolium multiflorum); assay: Test D pre-/postemergence plant response
Outline: (§2)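 Greenhouse herbicidal response, both pre- and postemergence applications, with solvent/surfactant formulation. Postemergence plants were at 1- to 4-leaf stage. Visual scores 0–100 relative to controls, taken 13 to 15 days later.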

[4] = test system: barnyardgrass (Echinochloa crus-galli); assay: Test D pre-/postemergence plant response
Outline: as §2

[5] = test system: blackgrass (Alopecurus myosuroides); assay: Test D pre-/postemergence plant response
Outline: as §2

corn (Zea mays) = assay: Test D pre-/postemergence plant response
Outline: as §2

[6] = test system: giant foxtail (Setaria faberii); assay: Test D pre-/postemergence plant response
Outline: as §2

[7] = test system: lambsquarters (Chenopodium album); assay: Test D pre-/postemergence plant response
Outline: as §2

[8] = test system: large (Lg) crabgrass (Digitaria sanguinalis); assay: Test D pre-/postemergence plant response
Outline: as §2

[9] = test system: morningglory (Ipomoea coccinea); assay: Test D pre-/postemergence plant response
Outline: as §2

[10] = test system: pigweed (Amaranthus retroflexus); assay: Test D pre-/postemergence plant response
Outline: as §2

soybean (Glycine max) = assay: Test D pre-/postemergence plant response
Outline: as §2

[11] = test system: velvetleaf (Abutilon theophrasti); assay: Test D pre-/postemergence plant response
Outline: as §2

[12] = test system: waterhemp (common waterhemp, Amaranthus rudis); assay: Test D pre-/postemergence plant response
Outline: as §2

[13] = 125 g ai/ha, postemergence, 0 to 100 scale, 0 no effect, 100 complete control
[14] = Postemergence, 500 g ai/ha, 0 to 100 scale (0 no effect, 100 complete control)
[15] = Preemergence, 125 g ai/ha, 0 to 100 scale (0 no effect, 100 complete control)
[16] = Preemergence, 500 g ai/ha, 0 to 100 scale where 0 is no effect and 100 is complete control
[17] = Postemergence, 31 g ai/ha, scale 0 to 100 (0 no effect, 100 complete control)
[18] = Postemergence, 62 g ai/ha, scale 0 to 100, 0 no effect, 100 complete control
[19] = Postemergence, 125 g ai/ha, scale 0 to 100, 0 no effect, 100 complete control
[20] = Preemergence, 16 g ai/ha, scale 0 to 100 (0 no effect, 100 complete control)
[21] = Preemergence, 31 g ai/ha, scale 0 to 100 (0 no effect, 100 complete control)
[22] = Preemergence, 62 g ai/ha, scale 0 to 100 (0 no effect, 100 complete control)

## FC(F)c1cc(-c2c(Cl)cccc2Oc2ncc(Cl)cn2)no1 [Compound 179]
[1]; [13]
  Plant response rating, Ryegrass, Italian: 90
[1]; [14]
  Plant response rating, Ryegrass, Italian: 100
[1]; [15]
  Ryegrass, Italian plant response rating: 20
[1]; [16]
  Plant response rating, Ryegrass, Italian: 40
Kochia (Kochia scoparia); [13]
  Plant response rating, Kochia: 90
Kochia (Kochia scoparia); [14]
  Plant response rating, Kochia: 100
Kochia (Kochia scoparia); [15]
  Kochia plant response rating: 100
Kochia (Kochia scoparia); [16]
  Plant response rating, Kochia: 100
[2]; [13]
  Plant response rating, Ragweed: 10
[2]; [14]
  Plant response rating, Ragweed: 30
[2]; [15]
  Ragweed plant response rating: 10
[2]; [16]
  Plant response rating, Ragweed: 40
[3]; Postemergence, 16 g ai/ha
  Plant response rating (scale 0 to 100), Ryegrass, Italian: 0
[3]; [17]
  Ryegrass, Italian plant response rating: 5
[3]; [18]
  Ryegrass, Italian plant response rating: 5
[3]; [19]
  Plant response rating, Ryegrass, Italian: 20
[3]; Preemergence, 125 g ai/ha
  Plant response rating (scale 0 to 100), Ryegrass, Italian: 80
[3]; [20]
  Plant response rating, Ryegrass, Italian: 0
[3]; [21]
  Plant response rating, Ryegrass, Italian: 5
[3]; [22]
  Plant response rating, Ryegrass, Italian: 15
[4]; Postemergence, 16 g ai/ha
  Plant response rating (scale 0 to 100), Barnyardgrass: 0
[4]; [17]
  Barnyardgrass plant response rating: 0
[4]; [18]
  Plant response rating, Barnyardgrass: 5
[4]; [19]
  Plant response rating, Barnyardgrass: 5
[4]; Preemergence, 125 g ai/ha
  Plant response rating (scale 0 to 100), Barnyardgrass: 35
[4]; [20]
  Plant response rating, Barnyardgrass: 0
[4]; [21]
  Plant response rating, Barnyardgrass: 5
[4]; [22]
  Plant response rating, Barnyardgrass: 15
[5]; Postemergence, 16 g ai/ha
  Plant response rating (scale 0 to 100), Blackgrass: 5
[5]; [17]
  Blackgrass plant response rating: 5
[5]; [18]
  Plant response rating, Blackgrass: 15
[5]; [19]
  Plant response rating, Blackgrass: 20
[5]; Preemergence, 125 g ai/ha
  Plant response rating (scale 0 to 100), Blackgrass: 80
[5]; [20]
  Plant response rating, Blackgrass: 0
[5]; [21]
  Plant response rating, Blackgrass: 30
[5]; [22]
  Plant response rating, Blackgrass: 45
Corn (Zea mays); Postemergence, 16 g ai/ha
  Plant response rating (scale 0 to 100), Corn: 5
Corn (Zea mays); [17]
  Corn plant response rating: 10
Corn (Zea mays); [18]
  Plant response rating, Corn: 10
Corn (Zea mays); [19]
  Plant response rating, Corn: 15
Corn (Zea mays); Preemergence, 125 g ai/ha
  Plant response rating (scale 0 to 100), Corn: 5
Corn (Zea mays); [20]
  Plant response rating, Corn: 0
Corn (Zea mays); [21]
  Plant response rating, Corn: 0
Corn (Zea mays); [22]
  Plant response rating, Corn: 0
[6]; Postemergence, 16 g ai/ha
  Plant response rating (scale 0 to 100), Foxtail, Giant: 5
[6]; [17]
  Foxtail, Giant plant response rating: 5
[6]; [18]
  Plant response rating, Foxtail, Giant: 40
[6]; [19]
  Plant response rating, Foxtail, Giant: 30
[6]; Preemergence, 125 g ai/ha
  Plant response rating (scale 0 to 100), Foxtail, Giant: 85
[6]; [20]
  Plant response rating, Foxtail, Giant: 5
[6]; [21]
  Plant response rating, Foxtail, Giant: 30
[6]; [22]
  Plant response rating, Foxtail, Giant: 85
[7]; Postemergence, 16 g ai/ha
  Plant response rating (scale 0 to 100), Lambsquarters: 70
[7]; [17]
  Lambsquarters plant response rating: 75
[7]; [18]
  Lambsquarters plant response rating: 75
[7]; [19]
  Plant response rating, Lambsquarters: 100
[7]; Preemergence, 125 g ai/ha
  Plant response rating (scale 0 to 100), Lambsquarters: 100
[7]; [20]
  Plant response rating, Lambsquarters: 75
[7]; [21]
  Plant response rating, Lambsquarters: 100
[7]; [22]
  Plant response rating, Lambsquarters: 100
[8]; Postemergence, 16 g ai/ha
  Plant response rating (scale 0 to 100), Crabgrass, Large: 5
[8]; [17]
  Crabgrass, Large plant response rating: 5
[8]; [18]
  Plant response rating, Crabgrass, Large: 5
[8]; [19]
  Plant response rating, Crabgrass, Large: 5
[8]; Preemergence, 125 g ai/ha
  Plant response rating (scale 0 to 100), Crabgrass, Large: 100
[8]; [20]
  Plant response rating, Crabgrass, Large: 10
[8]; [21]
  Plant response rating, Crabgrass, Large: 65
[8]; [22]
  Plant response rating, Crabgrass, Large: 75
[9]; Postemergence, 16 g ai/ha
  Plant response rating (scale 0 to 100), Morningglory: 30
[9]; [17]
  Morningglory plant response rating: 65
[9]; [18]
  Morningglory plant response rating: 85
[9]; [19]
  Plant response rating, Morningglory: 90
[9]; Preemergence, 125 g ai/ha
  Plant response rating (scale 0 to 100), Morningglory: 15
[9]; [20]
  Plant response rating, Morningglory: 0
[9]; [21]
  Plant response rating, Morningglory: 0
[9]; [22]
  Plant response rating, Morningglory: 0
[10]; Postemergence, 16 g ai/ha
  Plant response rating (scale 0 to 100), Pigweed: 80
[10]; [17]
  Pigweed plant response rating: 90
[10]; [18]
  Pigweed plant response rating: 98
[10]; [19]
  Plant response rating, Pigweed: 98
[10]; Preemergence, 125 g ai/ha
  Plant response rating (scale 0 to 100), Pigweed: 100
[10]; [20]
  Plant response rating, Pigweed: 30
[10]; [21]
  Plant response rating, Pigweed: 100
[10]; [22]
  Plant response rating, Pigweed: 100
Soybean (Glycine max); Postemergence, 16 g ai/ha
  Plant response rating (scale 0 to 100), Soybean: 25
Soybean (Glycine max); [17]
  Soybean plant response rating: 45
Soybean (Glycine max); [18]
  Soybean plant response rating: 70
Soybean (Glycine max); [19]
  Plant response rating, Soybean: 70
Soybean (Glycine max); Preemergence, 125 g ai/ha
  Plant response rating (scale 0 to 100), Soybean: 45
Soybean (Glycine max); [20]
  Plant response rating, Soybean: 0
Soybean (Glycine max); [21]
  Plant response rating, Soybean: 0
Soybean (Glycine max); [22]
  Plant response rating, Soybean: 30
[11]; Postemergence, 16 g ai/ha
  Plant response rating (scale 0 to 100), Velvetleaf: 15
[11]; [17]
  Velvetleaf plant response rating: 20
[11]; [18]
  Velvetleaf plant response rating: 30
[11]; [19]
  Plant response rating, Velvetleaf: 70
[11]; Preemergence, 125 g ai/ha
  Plant response rating (scale 0 to 100), Velvetleaf: 100
[11]; [20]
  Plant response rating, Velvetleaf: 15
[11]; [21]
  Plant response rating, Velvetleaf: 65
[11]; [22]
  Plant response rating, Velvetleaf: 85
[12]; Postemergence, 16 g ai/ha
  Plant response rating (scale 0 to 100), Waterhemp: 60
[12]; [17]
  Waterhemp plant response rating: 90
[12]; [18]
  Waterhemp plant response rating: 95
[12]; [19]
  Plant response rating, Waterhemp: 98
[12]; Preemergence, 125 g ai/ha
  Plant response rating (scale 0 to 100), Waterhemp: 100
[12]; [20]
  Plant response rating, Waterhemp: 75
[12]; [21]
  Plant response rating, Waterhemp: 90
[12]; [22]
  Plant response rating, Waterhemp: 90
